Assay results: ChEMBL document CHEMBL1135788, “Novel structures derived from 2-[[(2-pyridyl)methyl]thio]-1H-benzimidazole as anti-Helicobacter pylori agents, Part 1” (2002)
Values after ≈ are worked out from the molar mass of the structure shown. Values joined by “and” are separate entries in the source; they are usually repeats but may differ in a detail not shown here. Identical values can stand only once.

test system: Helicobacter pylori; assay: (§1) Minimum bactericidal concentration against Helicobacter pylori ATCC 43504; type: functional

Row | SMILES | MBC
1 | Cc1c(CNc2nc3ccccc3o2)cccc1OCC(C)C | > 128 µg/mL and > 412 µM
2 | Cc1c(CNc2nc3ccccc3[nH]2)cccc1SCCN1CCOCC1 | 32 µg/mL and 107 µM
3 | Cc1c(OCC(C)C)ccnc1CNc1nc2ccccc2o1 | 32 µg/mL and 103 µM
4 | Cc1c(OCC(C)C)ccnc1CSc1nc2ccccc2[nH]1 | 1 µg/mL and 3 µM
5 | Cc1c(OCC(C)C)ccnc1COc1nc2ccccc2s1 | 16 µg/mL and 49 µM
6 | CCC(=O)c1ccc2[nH]c(SCc3cccc(SCCOCCOCCOCCOCCOC)c3C)nc2c1 | 2 µg/mL and 3.47 µM
7 | Cc1c(CSc2nc3ccccc3[nH]2)cccc1SCC(C)C | 4 µg/mL and 8.76 µM
8 | Cc1c(OCC(C)C)ccnc1CCc1cc2ccccc2o1 | 16 µg/mL and 52 µM
9 | Cc1c(OCC(C)C)ccnc1CNc1nc2ccccc2s1 | 32 µg/mL and 98 µM
10 | COCCOCCOCCOCCOCCSc1cccc(CSc2nc3ccccc3[nH]2)c1C | 0.5 µg/mL and 0.96 µM
11 | Cc1c(CCc2cc3ccccc3o2)cccc1OCC(C)C | 128 µg/mL and 415 µM
12 | CC1(C)S[C@@H]2[C@H](NC(=O)[C@H](N)c3ccc(O)cc3)C(=O)N2[C@H]1C(=O)O [AMOXICILLIN] | 0.05 µg/mL
13 | Cc1c(OCC(C)C)ccnc1CCc1nc2ccccc2o1 | 32 µg/mL and 103 µM
14 | COCCOCCOCCOc1cccc(CSc2nc3ccccc3[nH]2)c1C | 4 µg/mL and 9.6 µM
15 | Cc1c(CCc2nc3ccccc3s2)cccc1OCC(C)C | 32 µg/mL and 98 µM
16 | COCCOCCOCCSc1cccc(CSc2nc3ccccc3[nH]2)c1C | 0.5 µg/mL and 1.16 µM
17 | Cc1c(CNc2nc3ccccc3s2)cccc1OCC(C)C | > 128 µg/mL and > 392 µM
18 | Cc1c(CSc2nc3ccccc3[nH]2)cccc1OCCN1CCOCC1 | 16 µg/mL and 42 µM
19 | Cc1c(CCc2cc3ccccc3[nH]2)cccc1OCC(C)C | 16 µg/mL and 52 µM
20 | Cc1c(CCc2nc3ccccc3[nH]2)cccc1OCC(C)C | 8 µg/mL and 26 µM
21 | Cc1c(OCC(C)C)ccnc1CNc1nc2ccccc2[nH]1 | 8 µg/mL
22 | Cc1c(OCC(C)C)ccnc1CCc1nc2ccccc2[nH]1 | 32 µg/mL and 103 µM
23 | COCCOCCOCCOCCOCCSc1cccc(CSc2nc3cc(N)ccc3[nH]2)c1C | 8 µg/mL and 15 µM

Row | SMILES | MBC
24 | Cc1c(OCC(C)C)ccnc1CSc1nc2ccccc2o1 | 32 µg/mL and 81 µM
25 | Cc1c(OCC(C)C)ccnc1CSc1nc2ccccc2s1 | 32 µg/mL and 93 µM
26 | Cc1c(CCc2nc3ccccc3o2)cccc1OCC(C)C | 16 µg/mL and 52 µM
27 | Cc1c(OCC(C)C)ccnc1COc1nc2ccccc2o1 | 16 µg/mL and 51 µM
28 | CCOC(=O)c1ccc2[nH]c(SCc3cccc(SCCOCCOCCOCCOCCOC)c3C)nc2c1 | 2 µg/mL and 3.37 µM
29 | Cc1c(CNc2nc3ccccc3[nH]2)cccc1OCC(C)C | 2 µg/mL and 6.5 µM
30 | CC[C@H]1OC(=O)[C@H](C)[C@@H](O[C@H]2C[C@@](C)(OC)[C@@H](O)[C@H](C)O2)[C@H](C)[C@@H](O[C@@H]2O[C@H](C)C[C@H](N(C)C)[C@H]2O)[C@](C)(OC)C[C@@H](C)C(=O)[C@H](C)[C@@H](O)[C@]1(C)O [CLARITHROMYCIN] | 0.1 µg/mL
31 | Cc1c(OCC(C)C)ccnc1CCc1nc2ccccc2s1 | 16 µg/mL and 49 µM
32 | Cc1c(COc2nc3ccccc3o2)cccc1OCC(C)C | 32 µg/mL and 103 µM
33 | Cc1c(CSc2nc3ccccc3[nH]2)cccc1SCCn1cncn1 | 4 µg/mL and 10.5 µM
34 | Cc1c(CSc2cc3ccccc3[nH]2)cccc1OCC(C)C | 32 µg/mL and 98 µM
35 | Cc1c(CSc2nc3ccccc3s2)cccc1OCC(C)C | > 128 µg/mL and > 373 µM
36 | Cc1c(COc2nc3ccccc3s2)cccc1OCC(C)C | 128 µg/mL and 391 µM
37 | Cc1c(OCC(C)C)ccnc1CSc1cc2ccccc2[nH]1 | 4 µg/mL and 12 µM
38 | COCCOCCOCCOCCOCCOc1cccc(CSc2nc3ccccc3[nH]2)c1C | 2 µg/mL and 3.96 µM
39 | Cc1c(CSc2nc3ccccc3[nH]2)cccc1OCC(C)C | 8 µg/mL and 19 µM
40 | COCCOCCOCCSc1cccc(CNc2nc3ccccc3s2)c1C | 4 µg/mL and 9.25 µM
41 | COCCOCCOCCSc1cccc(CNc2nc3ccccc3[nH]2)c1C | 77 µM
42 | Cc1c(CSc2nc3ccccc3[nH]2)cccc1SCCN1CCOCC1 | 1 µg/mL and 2.5 µM
43 | Cc1c(CSc2nc3ccccc3[nH]2)cccc1SCCn1c([N+](=O)[O-])cnc1C | 2 µg/mL and 4.55 µM
44 | COCCOCCOCCOCCOCCSc1cccc(CSc2nc3cc(CO)ccc3[nH]2)c1C | 8 µg/mL and 15 µM
45 | Cc1c(CSc2nc3ccccc3o2)cccc1OCC(C)C | 64 µg/mL and 195 µM

test system: Helicobacter pylori; assay: Minimum bactericidal concentration against Helicobacter pylori ATCC 43504; range 2-4 ug/mL; type: functional

Row | SMILES | MBC [µg/mL]
46 | Cc1ncc([N+](=O)[O-])n1CCO [METRONIDAZOLE] | 2 (≈ 11.7 µM)

test system: Helicobacter pylori; assay: as §1; type: functional

Row | SMILES | MBC [µg/mL]
47 | COCCOCCOCCSc1cccc(CNc2nc3ccccc3[nH]2)c1C | 32 (≈ 77 µM)

test system: Helicobacter pylori; assay: as §1; type: functional; remark: another data set of the same source

Row | SMILES | MBC [µM]
48 | Cc1c(OCC(C)C)ccnc1CNc1nc2ccccc2[nH]1 | 26 (≈ 8.07 µg/mL)

test system: Escherichia coli; assay: Minimum bactericidal concentration against Escherichia coli K-12; type: functional

Row | SMILES | MBC [µM]
49 | Cc1c(OCC(C)C)ccnc1CNc1nc2ccccc2[nH]1 | 206 (≈ 63.9 µg/mL)

test system: Staphylococcus aureus; assay: Minimum bactericidal concentration against Staphylococcus aureus CCUG 1800T; type: functional

Row | SMILES | MBC [µg/mL]
50 | Cc1c(OCC(C)C)ccnc1CNc1nc2ccccc2[nH]1 | 64 (≈ 206 µM)
